Source: patent US20240103006A1 (Roche Diagnostics Operations, Inc., priority 2021, published 2024)
≈ marks a conversion by molar mass, not a printed value. Where “and” joins values, the source holds several entries; their conditions need not be identical. Identical values can stand only once. Marks after values point to notes of the source that are not given here.

Assays:
[1] = solvent as listed per probe; cited from earlier work
[2] = Evaluation of solubility in water; format: physicochemical; details: for Solubility (by weight) / Solubility (by UV-vis): H2O at RT; for Solubility (by weight): calculated from isolated pellet weight; for Solubility (by UV-vis): supernatant read in 25 mM HEPES pH 7.4
Experimental: In the experiments, 5-10 mg of dried material was suspended in 250-500 μL of H2O at RT. The resulting suspension was centrifuged for 10 min at RT (16000 rcf). UV-vis of supernatant were recorded in buffer (25 mM HEPES pH 7.4) at RT. Each measurement was done in triplicate. The pellet was dried in vacuo for 16 h, and then weighed.
The aqueous solubility of probes is another important property for the performance of compounds in biological assays. The inventors determined the solubility in water of the probes according to the invention using UV-vis. First, oversaturated mixtures of each probe were prepared. The mixtures were centrifuged, and then the concentrations in probes of supernatant were examined by UV-vis. To further validate the results, the concentrations were calculated from the isolated pellet weight.

[3] = UV-vis spectral properties / extinction coefficients in aqueous buffer; format: physicochemical; details: probe before addition of Cys
Experimental: Absorption spectra were recorded on a Cary 50 UV-vis spectrometer from Varian. All measurements were performed in 1 cm UV-vis disposable cuvettes (BRAND semi-micro) and air-equilibrated solutions at 25±0.1° C. A total assay volume of 1.0 mL was used for each measurement. UV-vis scan spectra were recorded using following parameters: average time 0.05 s; data interval 1 nm; scan rate 1200 nm/min; with base line correction.
(§1) Stock solutions of assayed compounds (2-5 mM) were prepared in H2O-DMSO (1:1), stored at −20° C., and diluted to 1.0 mM with buffer before use. The L-Cys stock solution (20.0 mM) was freshly prepared in buffer before the measurements. […]
For a measurement, 1000 μL of buffer and 1-50 μL of probe (1.0 mM) were mixed, and then transferred to a cuvette. Absorbance spectra (250-800 nm) were measured against a blank of the buffer. At least six concentrations of each compound were used to calculate extinction coefficients from the slope of probe concentration vs absorbance plots, using MS Excel software (Microsoft).

[4] = Evaluation of stability (hydrolysis of probe in buffer, UV-vis); format: physicochemical; details: 25 mM HEPES pH 7.4, 15.6 μM, 5 h, ε from merocyanine analogues (LZ07: ε from Table 2)
Experimental: For a measurement, 1000 μL of buffer and 16 μL of probe (1.0 mM) were mixed, and then incubated at +4° C. and at +37° C. for 5 h. The resulting mixtures were transferred to a cuvette, and the absorbance (250-800 nm) was measured. Each measurement was done in triplicate.
[…] Solutions of each probe were monitored by UV-vis for 5 h.

[5] = Cys-response screening by UV-vis (cleavage of acryloyl ester by excess Cys); details: for ε^Cys / λ^Cys: after excess Cys (100 μM), 37° C., 15 min; for SNR: from ε^Cys and ε^blank
Experimental: as §1
In the same manner, ε^Cys was determined from the solutions of probe reacted with an excess of Cys (100 μM). The reactions were performed at 37° C. (incubation time 15 min). Blank reactions were run without addition of Cys.
Spectra recorded in the presence of Cys confirmed a colorimetric response through the cleavage of acryloyl ester. […] Moreover, their spectral profiles were advantageously fulfilling the wavelength requirement for the Cys sensing application in Cedex system (340, 378, 409, 480, 512, 520, 552, 583, 629, 652, 659 and 800 nm).

[6] = Probe performance in Cedex Bio HT: Cys sensing in a feed medium
Experimental: The rapid kinetic profile, stability and low background signal as obtained were encouraging to further use MF70 for Cys-sensing in Cedex Bio HT. Reagent solution was treated with various Cys-concentrations (0.5-7.6 mM) in a feed medium, which is used for monoclonal antibody production. […] Under these conditions, a reliable response was obtained over the period of one week (Table 5), with corresponding detection limit of 3.6 μM Cys, and limit of blank 2.2 μM Cys.

ε of long-wavelength band of probe ([3]; 25 mM HEPES pH 7.4) [mM⁻¹ cm⁻¹] | ε of short-wavelength band(s) of probe ([3]; 25 mM HEPES pH 7.4) | λmax, long-wavelength band of probe ([3]; 25 mM HEPES pH 7.4) [nm] | λmax, short-wavelength band(s) of probe ([3]; 25 mM HEPES pH 7.4) | Hydrolysis @4° C. [4] [%] | Hydrolysis @37° C. [4] [%] | SMILES | ε^Cys ([5]; 25 mM HEPES pH 7.4) [mM⁻¹ cm⁻¹] | λ^Cys ([5]; 25 mM HEPES pH 7.4) [nm] | SNR ([5]; 25 mM HEPES pH 7.4) | further results
– | – | – | – | – | – | C=CC(=O)Oc1ccc2c(c1)Oc1cc(OC(=O)C=C)ccc1C21OC(=O)c2ccccc21 | – | – | – | Spectra: With Cys [1]: With Cys 490 nm
– | – | – | – | – | – | C=CC(=O)Oc1ccc2c(c1)OC1CCCC(=O)C1=C2 (stereo not drawn) | – | – | – | Spectra: With Cys [1]: 398 nm
– | – | – | – | – | – | C=CC(=O)Oc1ccc2cc(/C=C/C3=[N+](C)c4c(ccc5ccccc45)C3(C)C)ccc2c1 | – | – | – | Spectra: With Cys [1]: With Cys 460 nm
1.3 | 17.3 mM⁻¹ cm⁻¹ | 527 | 389 nm | 8.4 ± 0.2 | 36.9 ± 0.4 | C=CC(=O)Oc1ccc(/C=C/C2=[N+](CCCCS(=O)(=O)[O-])c3ccccc3C2(C)C)cc1 [LZ05, reference compound] | 31.9 | 527 | 12 | Solubility (by weight) [2]: 12 mM (≈ 5440 µg/mL); Solubility (by UV-vis) [2]: 11.0 ± 1.0 mM (≈ 4990 µg/mL)
0.6 | 16.9 mM⁻¹ cm⁻¹ | 520 | 383 nm | 7.3 ± 0.1 | 30.1 ± 0.2 | C=CC(=O)Oc1ccc(/C=C/C2=[N+](C)c3ccccc3C2(C)C)cc1 [LZ07, reference compound] | 31.5 | 520 | 16 | Solubility (by weight) [2]: 17 mM; Solubility (by UV-vis) [2]: 15.4 ± 1.5 mM
0.7 | 16.7 mM⁻¹ cm⁻¹ | 550 | 391 nm | 1.2 ± 0.0 | 4.7 ± 0.1 | C=CC(=O)Oc1c(C)cc(/C=C/C2=[N+](CCCCS(=O)(=O)[O-])c3ccccc3C2(C)C)cc1C [MF59] | 17.9 | 550 | 20 | Solubility (by weight) [2]: 2 mM (≈ 963 µg/mL); Solubility (by UV-vis) [2]: 5.8 ± 0.2 mM (≈ 2790 µg/mL); ε^Cys ([5]; same buffer at pH 8.0): 52.9 mM⁻¹ cm⁻¹; λ^Cys ([5]; same buffer at pH 8.0): 550 nm; SNR ([5]; same buffer at pH 8.0): 44**
2.1 | 14.3 mM⁻¹ cm⁻¹ | 530 | 409 nm | 9.8 ± 0.3 | 41.8 ± 0.9 | C=CC(=O)Oc1ccc(/C=C/C2=[N+](CCCCS(=O)(=O)[O-])c3ccccc3C2(C)C)c(OC)c1 [MF60] | 67.8 | 529 | 14 | –
0.4 | 20.4 mM⁻¹ cm⁻¹ | 548 | 397 nm | 4.8 ± 0.1 | 29.1 ± 1.9 | C=CC(=O)Oc1ccc(/C=C/C2=[N+](CCCCS(=O)(=O)[O-])c3ccccc3C2(C)C)cc1OC [MF61] | 61.7 | 549 | 36 | –
1.5 | 8.5 mM⁻¹ cm⁻¹ and 7.7 mM⁻¹ cm⁻¹ | 582 | 419 nm and 287 nm | 7.6 ± 0.5 | 40.4 ± 0.6 | C=CC(=O)Oc1ccc(/C=C/C2=[N+](CCCCS(=O)(=O)[O-])c3ccccc3C2(C)C)c2ccccc12 [MF62] | 105.3 | 582 | 20 | –
2.9 | 14.0 mM⁻¹ cm⁻¹ | 572 | 397 nm | 9.8 ± 1.5 | 55.3 ± 0.7 | C=CC(=O)Oc1ccc(/C=C/C2=[N+](CCCCS(=O)(=O)[O-])c3ccccc3C2(C)C)c2cccnc12 [MF63] | 93.4 | 572 | 10 | –
0.7 | 8.0 mM⁻¹ cm⁻¹ | 514 | 350 nm | 8.9 ± 0.2 | 45.2 ± 1.4 | C=CC(=O)Oc1ccc(/C=C/C2=[N+](CCCCS(=O)(=O)O)c3ccccc3C2(C)C)c(S(=O)(=O)[O-])c1 [MF64] | 32.1 | 514 | 14 | –
1.2 | 17.7 mM⁻¹ cm⁻¹ | 528 | 381 nm | 7.2 ± 0.2 | 28.9 ± 1.4 | C=CC(=O)Oc1ccc(/C=C/C2=[N+](CCCCS(=O)(=O)O)c3ccccc3C2(C)C)cc1S(=O)(=O)[O-] [MF65] | 44.3 | 528 | 16 | –
– | 21.9 mM⁻¹ cm⁻¹ | – | 400 nm | 0.2 ± 0.0 | 0.8 ± 0.0 | C=CC(=O)Oc1c(C)cc(/C=C/C2=[N+](CCCS(=O)(=O)O)c3ccc(S(=O)(=O)[O-])cc3C2(C)C)cc1C [MF70] | 23.6 | 556 | 118 | detection limit [6]: 3.6 μM Cys; limit of blank [6]: 2.2 μM Cys; Solubility (by weight) [2]: ≥47 mM; Solubility (by UV-vis) [2]: ≥41 mM; aqueous solubility (in words) ([2]; in comparison to LZ05 and MF59): highly water-soluble; ε of short-wavelength band of probe ([3]; same buffer at pH 8.0): 16.6 mM⁻¹ cm⁻¹; λmax, short-wavelength band of probe ([3]; same buffer at pH 8.0): 400 nm; ε^Cys ([5]; same buffer at pH 8.0): 55.8 mM⁻¹ cm⁻¹; λ^Cys ([5]; same buffer at pH 8.0): 556 nm; SNR ([5]; same buffer at pH 8.0): 140**
0.6 | 29.1 mM⁻¹ cm⁻¹ | 546 | 387 nm | 1.0 ± 0.1 | 2.3 ± 0.2 | C=CC(=O)Oc1c(C)cc(/C=C/C2=[N+](C)c3ccccc3C2(C)C)cc1C [MF71] | 33.7 | 547 | 48 | ε of long-wavelength band of probe ([3]; same buffer at pH 8.0): 0.8 mM⁻¹ cm⁻¹; ε of short-wavelength band of probe ([3]; same buffer at pH 8.0): 25.7 mM⁻¹ cm⁻¹; λmax, long-wavelength band of probe ([3]; same buffer at pH 8.0): 546 nm; λmax, short-wavelength band of probe ([3]; same buffer at pH 8.0): 385 nm; ε^Cys ([5]; same buffer at pH 8.0): 69.6 mM⁻¹ cm⁻¹; λ^Cys ([5]; same buffer at pH 8.0): 547 nm; SNR ([5]; same buffer at pH 8.0): 53**
– | 14.2 mM⁻¹ cm⁻¹ | – | 396 nm | 0.8 ± 0.1 | 2.8 ± 0.1 | C=CC(=O)Oc1c(OC)cc(/C=C/C2=[N+](CCCCS(=O)(=O)[O-])c3ccccc3C2(C)C)cc1OC [MF72] | 31.0 | 575 | 103 | –
– | – | – | – | – | – | C=CC(=O)Oc1ccc(/C=C/C2=[N+](C)c3ccccc3C2(C)C)cc1 [drawing 16] | – | – | – | Spectra: Probe [1]: 384 nm; Spectra: With Cys [1]: 512 nm
